Target: T1, hCRTH2 (Homo sapiens, UniProt Q9Y5Y4)
T1 construct: expressed in transfected cells; host or cells: HEK cell line expressing hCRTH2 (HEK-hCRTH2); membranes
T1 sequence (Q9Y5Y4 1-395): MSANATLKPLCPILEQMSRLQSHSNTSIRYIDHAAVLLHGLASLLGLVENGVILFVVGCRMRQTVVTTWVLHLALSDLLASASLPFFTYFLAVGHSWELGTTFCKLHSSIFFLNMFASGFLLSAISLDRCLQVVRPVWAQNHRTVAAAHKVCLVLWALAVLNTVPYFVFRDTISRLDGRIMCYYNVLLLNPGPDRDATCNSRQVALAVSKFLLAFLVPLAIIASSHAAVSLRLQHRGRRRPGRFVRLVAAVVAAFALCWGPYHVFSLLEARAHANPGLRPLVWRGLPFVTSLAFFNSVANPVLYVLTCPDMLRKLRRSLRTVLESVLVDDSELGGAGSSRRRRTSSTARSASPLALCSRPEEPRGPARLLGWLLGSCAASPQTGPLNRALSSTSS
Test: Radioligand binding assay ([3H]PGD2 competition, membranes from HEK-hCRTH2 cell line)
Conditions: 0.7 nM [3H]PGD2, membrane protein from HEK-hCRTH2 cell line, 60 min at room temperature; values given as ranges
Description: Radioligand Binding Assay.
Radioligand binding assays were performed at room temperature in 10 mM HEPES/KOH pH 7.4, 1 mM EDTA containing 10 mM MnCl2 and 0.7 nM [^3H]PGD2 (NEN, 171 Ci mmol^−1), in a final volume of 0.2 ml. Competing ligands were diluted in dimethylsulfoxide (Me2SO) that was kept constant at 1% (v/v) of the final incubation volume. The reaction was initiated by the addition of 8-20 μg of membrane protein prepared from a HEK-hCRTH2 cell line. Total and non-specific binding were determined in the absence and the presence of 10 μM PGD2, respectively. Under these conditions, specific binding (total minus non-specific) of the radioligand to the receptor reached equilibrium within 50 min and was stable up to 180 min. The reaction was routinely conducted for 60 min at room temperature and terminated by rapid filtration through prewetted Unifilters GF/C (Packard), using a Tomtec MachIII semi-automated harvester (for HEK-hCRTH2). The filters were then washed with 4 ml of the same buffer and residual radioligand bound to the filter was determined by liquid scintillation counting following equilibration in 25 μl Ultima Gold F™ (Unifilter) (Packard). The Ki (in nM) values for representative compounds of the present invention are as follows: ≦5: Examples 3.1, 5.1, 6.1, 7.1, 8.1/8A, 9.1, 26, 27.1, 28.1, 29.1, 30, 31.1, 31.3, 32.1, 32.4, 33.1, 34.1, 36.1, 38.1, 39, 40, 41; >5 and ≦10: Examples, 4, 5.3, 29.2; >10 and ≦50: Examples 1, 10, 14, 21, 22, 25, 31.4, 32.3, 35, 36.2, 37; >50 and ≦100: Examples 2, 5.4, 6.2, 27.2, 28.2; >100: Examples 3.2, 5.2, 7.2, 8.2, 9.2, 11, 12, 13, 15, 16, 17, 18, 19, 20, 23, 24, 31.2, 32.2, 33.2, 34.2, 38.2.

Ki [nM]	SMILES
10 to 50	Cc1c(Cc2ccc(F)cc2)nnn1C1CCc2c(CC(=O)O)c3cccc(F)c3n2C1 (racemic) [Example 37, {4-Fluoro-7-[4-(4-fluorobenzyl)-5-methyl-1H-1,2,3-triazol-1-yl]-6,7,8,9-tetrahydropyrido[1,2-α]indol-10-yl}acetic acid]
≤ 5	O=C(O)Cc1c2n(c3ccccc13)CC(n1nncc1Cc1ccccc1)CC2 (single isomer, unassigned) [Example 3.1, [7-(5-Benzyl-[1,2,3]triazol-1-yl)-6,7,8,9-tetrahydropyrido[1,2-α]indol-10-yl]-acetic acid]
> 100	O=C(O)Cc1c2n(c3ccccc13)CC(n1nncc1Cc1ccccc1)CC2 (single isomer, unassigned) [Example 3.2, [7-(5-Benzyl-[1,2,3]triazol-1-yl)-6,7,8,9-tetrahydropyrido[1,2-α]indol-10-yl]-acetic acid]
≤ 5	CC(O)(c1ccc(F)cc1)c1cnnn1C1CCc2c(CC(=O)O)c3ccccc3n2C1 (single isomer, unassigned) [Example 5.1, (7-{5-[1-(4-Fluoro-phenyl)-1-hydroxy-ethyl]-[1,2,3]triazol-1-yl}-6,7,8,9-tetrahydropyrido[1,2-α]indol-10-yl)-acetic acid]
> 100	CC(O)(c1ccc(F)cc1)c1cnnn1C1CCc2c(CC(=O)O)c3ccccc3n2C1 (single isomer, unassigned) [Example 5.2, (7-{5-[1-(4-Fluoro-phenyl)-1-hydroxy-ethyl]-[1,2,3]triazol-1-yl}-6,7,8,9-tetrahydropyrido[1,2-α]indol-10-yl)-acetic acid]
5 to 10	CC(O)(c1ccc(F)cc1)c1cnnn1C1CCc2c(CC(=O)O)c3ccccc3n2C1 (single isomer, unassigned) [Example 5.3, (7-{5-[1-(4-Fluoro-phenyl)-1-hydroxy-ethyl]-[1,2,3]triazol-1-yl}-6,7,8,9-tetrahydropyrido[1,2-α]indol-10-yl)-acetic acid]
50 to 100	CC(O)(c1ccc(F)cc1)c1cnnn1C1CCc2c(CC(=O)O)c3ccccc3n2C1 (single isomer, unassigned) [Example 5.4, (7-{5-[1-(4-Fluoro-phenyl)-1-hydroxy-ethyl]-[1,2,3]triazol-1-yl}-6,7,8,9-tetrahydropyrido[1,2-α]indol-10-yl)-acetic acid]
≤ 5	O=C(O)Cc1c2n(c3ccccc13)CC(n1nncc1C1(c3ccccc3)CCCC1)CC2 (single isomer, unassigned) [Example 6.1, {7-[5-(1-Phenyl-cyclopentyl)-[1,2,3]triazol-1-yl]-6,7,8,9-tetrahydropyrido[1,2-α]indol-10-yl}-acetic acid]
50 to 100	O=C(O)Cc1c2n(c3ccccc13)CC(n1nncc1C1(c3ccccc3)CCCC1)CC2 (single isomer, unassigned) [Example 6.2, {7-[5-(1-Phenyl-cyclopentyl)-[1,2,3]triazol-1-yl]-6,7,8,9-tetrahydropyrido[1,2-α]indol-10-yl}-acetic acid]
≤ 5	O=C(O)Cc1c2n(c3c(F)cccc13)CC(n1nncc1Cc1ccccc1)CC2 (single isomer, unassigned) [Example 7.1, [7-(5-Benzyl-[1,2,3]triazol-1-yl)-4-fluoro-6,7,8,9-tetrahydropyrido[1,2-α]indol-10-yl]-acetic acid]
> 100	O=C(O)Cc1c2n(c3c(F)cccc13)CC(n1nncc1Cc1ccccc1)CC2 (single isomer, unassigned) [Example 7.2, [7-(5-Benzyl-[1,2,3]triazol-1-yl)-4-fluoro-6,7,8,9-tetrahydropyrido[1,2-α]indol-10-yl]-acetic acid]
> 100	O=C(O)Cc1c2n(c3c(F)cccc13)CC(n1nncc1Cc1ccc(F)cc1)CC2 (single isomer, unassigned) [Example 8.2, {4-Fluoro-7-[5-(4-fluoro-benzyl)-[1,2,3]triazol-1-yl]-6,7,8,9-tetrahydropyrido[1,2-α]indol-10-yl}-acetic acid]
≤ 5	O=C(O)Cn1c2c(c3ccccc31)CC(n1nncc1Cc1ccccc1)CC2 (single isomer, unassigned) [Example 9.1, [3-(5-Benzyl-[1,2,3]triazol-1-yl)-1,2,3,4-tetrahydro-carbazol-9-yl]-acetic acid]
> 100	O=C(O)Cn1c2c(c3ccccc31)CC(n1nncc1Cc1ccccc1)CC2 (single isomer, unassigned) [Example 9.2, [3-(5-Benzyl-[1,2,3]triazol-1-yl)-1,2,3,4-tetrahydro-carbazol-9-yl]-acetic acid]
≤ 5	O=C(O)Cc1c2n(c3ccccc13)CC(n1nncc1C(O)(c1ccc(F)cc1)c1ccc(F)cc1)CC2 (single isomer, unassigned) [Example 27.1]
50 to 100	O=C(O)Cc1c2n(c3ccccc13)CC(n1nncc1C(O)(c1ccc(F)cc1)c1ccc(F)cc1)CC2 (single isomer, unassigned) [Example 27.2]
≤ 5	O=C(O)Cc1c2n(c3ccccc13)CC(n1nncc1Cc1ccc(F)cc1)CC2 (single isomer, unassigned) [Example 28.1]
50 to 100	O=C(O)Cc1c2n(c3ccccc13)CC(n1nncc1Cc1ccc(F)cc1)CC2 (single isomer, unassigned) [Example 28.2]
≤ 5	CC(c1ccccc1)c1cnnn1C1CCc2c(CC(=O)O)c3ccccc3n2C1 (single isomer, unassigned) [Example 29.1]
5 to 10	CC(c1ccccc1)c1cnnn1[C@@H]1CCc2c(CC(=O)O)c3ccccc3n2C1 (single isomer, unassigned) [Example 29.2]
≤ 5	CC(O)(c1ccc(F)cc1)c1cnnn1C1CCc2c(CC(=O)O)c3cccc(F)c3n2C1 (single isomer, unassigned) [Example 31.1]
> 100	CC(O)(c1ccc(F)cc1)c1cnnn1C1CCc2c(CC(=O)O)c3cccc(F)c3n2C1 (single isomer, unassigned) [Example 31.2]
≤ 5	CC(O)(c1ccc(F)cc1)c1cnnn1C1CCc2c(CC(=O)O)c3cccc(F)c3n2C1 (single isomer, unassigned) [Example 31.3]
10 to 50	CC(O)(c1ccc(F)cc1)c1cnnn1C1CCc2c(CC(=O)O)c3cccc(F)c3n2C1 (single isomer, unassigned) [Example 31.4]
≤ 5	CC(c1ccccc1)c1cnnn1C1CCc2c(CC(=O)O)c3cccc(F)c3n2C1 (single isomer, unassigned) [Example 32.1, {4-Fluoro-7-[5-(1-phenyl-ethyl)-[1,2,3]triazol-1-yl]-6,7,8,9-tetrahydropyrido[1,2-α]indol-10-yl}-acetic acid]
> 100	CC(c1ccccc1)c1cnnn1C1CCc2c(CC(=O)O)c3cccc(F)c3n2C1 (single isomer, unassigned) [Example 32.2, {4-Fluoro-7-[5-(1-phenyl-ethyl)-[1,2,3]triazol-1-yl]-6,7,8,9-tetrahydropyrido[1,2-α]indol-10-yl}-acetic acid]
10 to 50	CC(c1ccccc1)c1cnnn1C1CCc2c(CC(=O)O)c3cccc(F)c3n2C1 (single isomer, unassigned) [Example 32.3, {4-Fluoro-7-[5-(1-phenyl-ethyl)-[1,2,3]triazol-1-yl]-6,7,8,9-tetrahydropyrido[1,2-α]indol-10-yl}-acetic acid]
≤ 5	CC(c1ccccc1)c1cnnn1C1CCc2c(CC(=O)O)c3cccc(F)c3n2C1 (single isomer, unassigned) [Example 32.4, {4-Fluoro-7-[5-(1-phenyl-ethyl)-[1,2,3]triazol-1-yl]-6,7,8,9-tetrahydropyrido[1,2-α]indol-10-yl}-acetic acid]
≤ 5	O=C(O)Cc1c2n(c3c(F)cccc13)CC(n1nncc1Cc1ccc(F)c(F)c1)CC2 (single isomer, unassigned) [Example 33.1, {7-[5-(3,4-difluorobenzyl)-1H-1,2,3-triazol-1-yl]-4-fluoro-6,7,8,9-tetrahydropyrido[1,2-a]-indol-10-yl}acetic acid]
